Assay results from patent US10457709B2, “Antimicrobial peptides, their variants and uses” (priority 2015, dated 2019).
Where two headings read alike, the source gives them in different places. Square brackets hold non-standard residues; d marks the D form. Peptide text beside a SMILES is read from it.

Assays:
[1] = tested on: C. glabrata clinical strains; assay: MIC, clinical yeast strains; assay type: cell-based, Candida glabrata; parameters: unit: µg/ml
Method in brief: (§1)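 Antifungal testing uses potato dextrose broth; antibacterial testing uses Mueller Hinton broth. Cell density is set to 5.0×10^5 cfu/ml and incubation runs 20–24 h at 37° C. MIC is the lowest concentration, within 0.125–128 μg/ml, at which no growth is visible.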

[2] = tested on: C. quillermondiae clinical strains; assay: MIC, clinical yeast strains; assay type: cell-based, Candida quillermondiae; parameters: unit: μg/ml; conditions: C. quillermondiae clinical yeast strain 1
Method in brief: as §1

[3] = tested on: C. parapsilosis clinical strains; assay: MIC, clinical yeast strains; assay type: cell-based, Candida parapsilosis; parameters: unit: µg/ml
Method in brief: as §1

[4] = tested on: Candida albicans clinical strains; assay: MIC, clinical yeast strains; assay type: cell-based; parameters: unit: μg/ml
Method in brief: as §1

[5] = tested on: Klebsiella pneumoniae clinical strains; assay type: cell-based; conditions: microdilution, Muller Hinton broth-cation adjusted, 0.02% BSA, 0.2% acetic acid
Method in brief: as §1

[6] = tested on: Pseudomonas aeruginosa clinical strains; assay type: cell-based; conditions: microdilution, Muller Hinton broth-cation adjusted, 0.02% BSA, 0.2% acetic acid
Method in brief: as §1

[7] = tested on: Escherichia coli clinical strains; assay type: cell-based; conditions: microdilution, Muller Hinton broth-cation adjusted, 0.02% BSA, 0.2% acetic acid
Method in brief: as §1

[8] = tested on: Serratia marcescens clinical strains; assay type: cell-based; parameters: Minimum inhibitory concentration: unit: μg/ml; conditions: microdilution, Muller Hinton broth-cation adjusted, 0.02% BSA, 0.2% acetic acid
Method in brief: as §1

[9] = tested on: Staphylococcus aureus clinical strains; assay type: cell-based; parameters: Minimum inhibitory concentration: unit: μg/ml; conditions: microdilution, Muller Hinton broth-cation adjusted, 0.02% BSA, 0.2% acetic acid
Method in brief: as §1

[10] = tested on: Streptococcus pneumoniae clinical strains; assay type: cell-based; parameters: Minimum inhibitory concentration: unit: μg/ml; conditions: microdilution, Muller Hinton broth-cation adjusted, 0.02% BSA, 0.2% acetic acid
Method in brief: as §1

[11] = tested on: Enterobacter cloacae clinical strains; assay type: cell-based; parameters: Minimum inhibitory concentration: unit: μg/ml; conditions: microdilution, Muller Hinton broth-cation adjusted, 0.02% BSA, 0.2% acetic acid
Method in brief: as §1

[12] = tested on: Proteus mirabilis clinical strains; assay type: cell-based; parameters: Minimum inhibitory concentration: unit: μg/ml; conditions: microdilution, Muller Hinton broth-cation adjusted, 0.02% BSA, 0.2% acetic acid
Method in brief: as §1

CC(C)C[C@@H](NC(=O)[C@H](N)CCCNC(=N)N)C(=O)N[C@H](CCCCN)C(=O)N[C@H](Cc1c[nH]c2ccccc12)C(=O)N[C@H](Cc1ccccc1)C(=O)N[C@H](Cc1c[nH]c2ccccc12)C(=O)N[C@H](CC(C)C)C(=O)N[C@H](Cc1ccccc1)C(=O)N[C@H](CCCNC(=N)N)C(=O)N[C@H](CCCCN)C(=O)N[C@H](CCCNC(=N)N)C(=O)O [Chain307D] (H-[dR][dL][dK][dW][dF][dW][dL][dF][dR][dK][dR]-OH)
Minimum inhibitory concentration ([1]; C. glabrata clinical yeast strain 1): 8 | Minimum inhibitory concentration ([1]; C. glabrata clinical yeast strain 2): 16 | Minimum inhibitory concentration ([1]; C. glabrata clinical yeast strain 3): 8 | Minimum inhibitory concentration ([1]; C. glabrata clinical yeast strain 4): 16 | Minimum inhibitory concentration [2]: 4 | Minimum inhibitory concentration ([3]; C. parapsilosis clinical yeast strain 1): 16 | Minimum inhibitory concentration ([3]; C. parapsilosis clinical yeast strain 2): 8 | Minimum inhibitory concentration ([3]; C. parapsilosis clinical yeast strain 3): 8 | Minimum inhibitory concentration ([3]; C. parapsilosis clinical yeast strain 4): 8 | Minimum inhibitory concentration ([4]; Candida albicans clinical yeast strain 1): 16 | Minimum inhibitory concentration ([4]; Candida albicans clinical yeast strain 2): 16 | Minimum inhibitory concentration ([4]; Candida albicans clinical yeast strain 3): 16 | Minimum inhibitory concentration ([4]; Candida albicans clinical yeast strain 4): 16 | Minimum inhibitory concentration ([4]; Candida albicans clinical yeast strain 5): 16 | Minimum inhibitory concentration ([5]; Klebsiella pneumoniae clinical strain 1): 8 | Minimum inhibitory concentration ([5]; Klebsiella pneumoniae clinical strain 2): 8 | Minimum inhibitory concentration ([5]; Klebsiella pneumoniae clinical strain 3): 16 | Minimum inhibitory concentration ([5]; Klebsiella pneumoniae clinical strain 4): 16 | Minimum inhibitory concentration ([5]; Klebsiella pneumoniae clinical strain 5): 4 | Minimum inhibitory concentration ([6]; Pseudomonas aeruginosa clinical strain 1): 16 | Minimum inhibitory concentration ([6]; Pseudomonas aeruginosa clinical strain 2): 16 | Minimum inhibitory concentration ([6]; Pseudomonas aeruginosa clinical strain 3): 16 | Minimum inhibitory concentration ([6]; Pseudomonas aeruginosa clinical strain 4): 8 | Minimum inhibitory concentration ([6]; Pseudomonas aeruginosa clinical strain 5): 8 | Minimum inhibitory concentration ([7]; Escherichia coli clinical strain 1): 4 | Minimum inhibitory concentration ([7]; Escherichia coli clinical strain 2): 4 | Minimum inhibitory concentration ([7]; Escherichia coli clinical strain 3): 4 | Minimum inhibitory concentration ([7]; Escherichia coli clinical strain 4): 2 | Minimum inhibitory concentration ([7]; Escherichia coli clinical strain 5): 4 | Minimum inhibitory concentration ([8]; Serratia marcescens clinical strain 1): >128 | Minimum inhibitory concentration ([8]; Serratia marcescens clinical strain 2): >128 | Minimum inhibitory concentration ([8]; Serratia marcescens clinical strain 3): 128 | Minimum inhibitory concentration ([8]; Serratia marcescens clinical strain 4): >128 | Minimum inhibitory concentration ([8]; Serratia marcescens clinical strain 5): >128 | Minimum inhibitory concentration ([9]; Staphylococcus aureus clinical strain 1): 2 | Minimum inhibitory concentration ([9]; Staphylococcus aureus clinical strain 2): 2 | Minimum inhibitory concentration ([9]; Staphylococcus aureus clinical strain 3): 2 | Minimum inhibitory concentration ([9]; Staphylococcus aureus clinical strain 4): 2 | Minimum inhibitory concentration ([9]; Staphylococcus aureus clinical strain 5): 2 | Minimum inhibitory concentration ([10]; Streptococcus pneumoniae clinical strain 1): 4 | Minimum inhibitory concentration ([10]; Streptococcus pneumoniae clinical strain 2): 4 | Minimum inhibitory concentration ([10]; Streptococcus pneumoniae clinical strain 3): 4 | Minimum inhibitory concentration ([10]; Streptococcus pneumoniae clinical strain 4): 2 | Minimum inhibitory concentration ([10]; Streptococcus pneumoniae clinical strain 5): 2 | Minimum inhibitory concentration ([11]; Enterobacter cloacae clinical strain 1): 4 | Minimum inhibitory concentration ([11]; Enterobacter cloacae clinical strain 2): 8 | Minimum inhibitory concentration ([11]; Enterobacter cloacae clinical strain 3): 4 | Minimum inhibitory concentration ([11]; Enterobacter cloacae clinical strain 4): 4 | Minimum inhibitory concentration ([11]; Enterobacter cloacae clinical strain 5): 4 | Minimum inhibitory concentration ([12]; Proteus mirabilis clinical strain 1): >128 | Minimum inhibitory concentration ([12]; Proteus mirabilis clinical strain 2): 128 | Minimum inhibitory concentration ([12]; Proteus mirabilis clinical strain 3): 128 | Minimum inhibitory concentration ([12]; Proteus mirabilis clinical strain 4): >128 | Minimum inhibitory concentration ([12]; Proteus mirabilis clinical strain 5): >128
